Patent US10253039B2, “Inhibitors of bacterial DNA gyrase with efficacy against gram-negative bacteria” (priority 2014, dated 2019)
In brackets after ≈: the same amount, converted by molar mass. Where two headings read alike, the source gives them in different places.

Assays:
Assay type in all cases: cell-based
[1] = system: Edwardsiella tarda; assay: MIC, microdilution in 96-well plates
How it was run: (§1)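 Each of the 20 strains is tested in LB at a 1:10000 dilution of a growing subculture. Compound is titrated 2-fold in three replicates; a DMSO column serves as vehicle control. After shaking incubation at 37° C. for 16-18 hours, MIC is taken as the lowest clear concentration.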

[2] = system: E. coli BW25113; assay: MIC, microdilution in 96-well plates; conditions: Escherichia coli, read-out: MIC
How it was run: as §1

[3] = system: Staphylococcus saprophyticus subsp. saprophyticus; assay: MIC, 20-strain panel
How it was run: as §1

[4] = system: Shigella flexneri; assay: MIC, 20-strain panel
How it was run: as §1

[5] = system: Staphylococcus epidermidis; assay: MIC, 20-strain panel
How it was run: as §1

[6] = system: E. coli JW5503 (deltolC); assay: MIC, 20-strain panel; conditions: Escherichia coli
How it was run: as §1

[7] = system: Staphylococcus aureus subsp. aureus; assay: MIC, 20-strain panel; conditions: read-out: MIC
How it was run: as §1

[8] = system: Klebsiella pneumoniae subsp. pneumoniae; assay: MIC, 20-strain panel
How it was run: as §1

[9] = system: Salmonella enterica subsp. enterica typhimurium; assay: MIC, 20-strain panel
How it was run: as §1

[10] = system: E. coli MG1655; assay: MIC, 20-strain panel; conditions: Escherichia coli, read-out: MIC
How it was run: as §1

[11] = system: Streptococcus agalactiae; assay: MIC, 20-strain panel
How it was run: as §1

[12] = system: Streptococcus pyogenes; assay: MIC, 20-strain panel
How it was run: as §1

[13] = H: Staphylococcus aureus subsp. aureus
[14] = E: Klebsiella pneumoniae subsp. pneumoniae
[15] = F: Salmonella enterica subsp. enterica Typhimurium
[16] = Staphylococcus aureus subsp. aureus
[17] = Klebsiella pneumoniae subsp. pneumoniae
[18] = Salmonella enterica subsp. enterica Typhimurium

`O=S(=O)(N[C@@H]1CCN(Cc2ccc(-c3cccs3)cc2)C1)c1cccc(C(F)(F)F)c1` [Compound 32] was tested, and the MIC ([1]; D: Edwardsiella tarda) was > 8 µg/mL, the MIC ([2]; BW25113, B: E. coli BW25113) was > 8 µg/mL and the MIC [3] was > 8 µg/mL. The MIC ([4]; G: Shigella flexneri) was > 8 µg/mL, the MIC [5] was 8 µg/mL (≈ 17.1 µM) and the MIC ([6]; C: E. coli JW5503 (deltolC)) was 1 µg/mL (≈ 2.14 µM). The MIC [7, 13] was > 8 µg/mL, the MIC [8, 14] was > 8 µg/mL and the MIC [9, 15] was 8 µg/mL (≈ 17.1 µM). The MIC ([10]; MG1655, A: E. coli MG1655) was > 8 µg/mL, the MIC [11] was > 8 µg/mL and the MIC [12] was 8 µg/mL (≈ 17.1 µM).

`N#Cc1cccc(S(=O)(=O)N[C@@H]2CCN(Cc3ccc(-c4ccc(Cl)cc4)cc3)C2)c1` [Compound 101] was tested, and the MIC ([1]; D: Edwardsiella tarda) was > 8 µg/mL, the MIC ([2]; BW25113, B: E. coli BW25113) was > 8 µg/mL and the MIC [3] was > 8 µg/mL. For the same compound, the MIC ([4]; G: Shigella flexneri) was > 8 µg/mL, the MIC [5] was 8 µg/mL (≈ 17.7 µM) and the MIC ([6]; C: E. coli JW5503 (deltolC)) was 2 µg/mL (≈ 4.42 µM). For the same compound, the MIC [7, 13] was ~8 µg/mL (≈ 17.7 µM), the MIC [8, 14] was > 8 µg/mL and the MIC [9, 15] was > 8 µg/mL. The MIC ([10]; MG1655, A: E. coli MG1655) was > 8 µg/mL, the MIC [11] was > 8 µg/mL and the MIC [12] was > 8 µg/mL.

For `O=S(=O)(N[C@@H]1CCN(Cc2cn(-c3ccccc3)nn2)C1)c1cccc(C(F)(F)F)c1` [Compound 108], the MIC ([1]; D: Edwardsiella tarda) was > 8 µg/mL, the MIC ([2]; BW25113, B: E. coli BW25113) was > 8 µg/mL and the MIC [3] was > 8 µg/mL. For the same compound, the MIC ([4]; G: Shigella flexneri) was > 8 µg/mL, the MIC [5] was > 8 µg/mL and the MIC ([6]; C: E. coli JW5503 (deltolC)) was > 8 µg/mL. The MIC [7, 13] was > 8 µg/mL, the MIC [8, 14] was > 8 µg/mL and the MIC [9, 15] was > 8 µg/mL. For the same compound, the MIC ([10]; MG1655, A: E. coli MG1655) was > 8 µg/mL, the MIC [11] was > 8 µg/mL and the MIC [12] was > 8 µg/mL.

For `CN1C(=O)Cc2cc(S(=O)(=O)N[C@@H]3CCN(Cc4ccc(-c5ccccc5)cc4)C3)ccc21` [Compound 180], the MIC [1] was > 8 µg/mL, the MIC ([2]; BW25113, E. coli BW25113) was > 8 µg/mL and the MIC [3] was > 8 µg/mL. The MIC [4] was > 8 µg/mL, the MIC [5] was > 8 µg/mL and the MIC ([6]; E. coli JW5503 (deltolC)) was > 8 µg/mL. The MIC [7, 16] was > 8 µg/mL, the MIC [8, 17] was > 8 µg/mL and the MIC [9, 18] was > 8 µg/mL. For the same compound, the MIC ([10]; MG1655, E. coli MG1655) was > 8 µg/mL, the MIC [11] was > 8 µg/mL and the MIC [12] was > 8 µg/mL.

In the case of `O=S(=O)(N[C@@H]1CCN(Cc2ccc(-c3nccs3)cc2)C1)c1cccc(OC(F)(F)F)c1` [Compound 36], the MIC ([1]; D: Edwardsiella tarda) is reported as > 8 µg/mL, the MIC ([2]; BW25113, B: E. coli BW25113) is reported as > 8 µg/mL and the MIC [3] is reported as > 8 µg/mL. For the same compound, the MIC ([4]; G: Shigella flexneri) was > 8 µg/mL, the MIC [5] was > 8 µg/mL and the MIC ([6]; C: E. coli JW5503 (deltolC)) was 2 µg/mL (≈ 4.14 µM). For the same compound, the MIC [7, 13] was > 8 µg/mL, the MIC [8, 14] was > 8 µg/mL and the MIC [9, 15] was > 8 µg/mL. The MIC ([10]; MG1655, A: E. coli MG1655) was > 8 µg/mL, the MIC [11] was > 8 µg/mL and the MIC [12] was > 8 µg/mL.

`O=S(=O)(N[C@@H]1CCN(Cc2cn(-c3ccccc3)nn2)C1)c1cccc(OC(F)(F)F)c1` [Compound 129] was tested, and the MIC [1] was > 8 µg/mL, the MIC ([2]; BW25113, E. coli BW25113) was > 8 µg/mL and the MIC [3] was > 8 µg/mL. The MIC [4] was > 8 µg/mL, the MIC [5] was > 8 µg/mL and the MIC ([6]; E. coli JW5503 (deltolC)) was > 8 µg/mL. For the same compound, the MIC [7, 16] was > 8 µg/mL, the MIC [8, 17] was > 8 µg/mL and the MIC [9, 18] was > 8 µg/mL. For the same compound, the MIC ([10]; MG1655, E. coli MG1655) was > 8 µg/mL, the MIC [11] was > 8 µg/mL and the MIC [12] was > 8 µg/mL.

With `Cc1ccncc1S(=O)(=O)N[C@@H]1CCN(Cc2ccc(-c3ccccc3)cc2)C1` [Compound 137] the MIC [1] was > 8 µg/mL, the MIC ([2]; BW25113, E. coli BW25113) was > 8 µg/mL and the MIC [3] was > 8 µg/mL. For the same compound, the MIC [4] was > 8 µg/mL, the MIC [5] was > 8 µg/mL and the MIC ([6]; E. coli JW5503 (deltolC)) was 2 µg/mL (≈ 4.91 µM). For the same compound, the MIC [7, 16] was > 8 µg/mL, the MIC [8, 17] was > 8 µg/mL and the MIC [9, 18] was > 8 µg/mL. For the same compound, the MIC ([10]; MG1655, E. coli MG1655) was > 8 µg/mL, the MIC [11] was > 8 µg/mL and the MIC [12] was > 8 µg/mL.

With `O=S(=O)(N[C@@H]1CCN(Cc2ccc(-c3ccccc3)cc2)C1)c1cccc2cccnc12` [Compound 105] the MIC ([1]; D: Edwardsiella tarda) was > 8 µg/mL, the MIC ([2]; BW25113, B: E. coli BW25113) was > 8 µg/mL and the MIC [3] was > 8 µg/mL. For the same compound, the MIC ([4]; G: Shigella flexneri) was > 8 µg/mL, the MIC [5] was > 8 µg/mL and the MIC ([6]; C: E. coli JW5503 (deltolC)) was 0.125 µg/mL (≈ 0.282 µM). The MIC [7, 13] was > 8 µg/mL, the MIC [8, 14] was > 8 µg/mL and the MIC [9, 15] was 8 µg/mL (≈ 18 µM). For the same compound, the MIC ([10]; MG1655, A: E. coli MG1655) was > 8 µg/mL, the MIC [11] was > 8 µg/mL and the MIC [12] was > 8 µg/mL.

For `N#Cc1cccc(S(=O)(=O)N[C@@H]2CCN(Cc3ccn(-c4ccccc4)n3)C2)c1` [Compound 126], the MIC ([1]; D: Edwardsiella tarda) was > 8 µg/mL, the MIC ([2]; BW25113, B: E. coli BW25113) was > 8 µg/mL and the MIC [3] was > 8 µg/mL. For the same compound, the MIC ([4]; G: Shigella flexneri) was > 8 µg/mL, the MIC [5] was > 8 µg/mL and the MIC ([6]; C: E. coli JW5503 (deltolC)) was > 8 µg/mL. The MIC [7, 13] was > 8 µg/mL, the MIC [8, 14] was > 8 µg/mL and the MIC [9, 15] was > 8 µg/mL. The MIC ([10]; MG1655, A: E. coli MG1655) was > 8 µg/mL, the MIC [11] was > 8 µg/mL and the MIC [12] was > 8 µg/mL.

With `O=S(=O)(N[C@@H]1CCN(Cc2ccc(OC3CC3)cc2)C1)c1cnc2ccccc2c1` [Compound 95] the MIC ([1]; D: Edwardsiella tarda) was > 8 µg/mL, the MIC ([2]; BW25113, B: E. coli BW25113) was > 8 µg/mL and the MIC [3] was > 8 µg/mL. For the same compound, the MIC ([4]; G: Shigella flexneri) was > 8 µg/mL, the MIC [5] was > 8 µg/mL and the MIC ([6]; C: E. coli JW5503 (deltolC)) was > 8 µg/mL. For the same compound, the MIC [7, 13] was > 8 µg/mL, the MIC [8, 14] was > 8 µg/mL and the MIC [9, 15] was > 8 µg/mL. For the same compound, the MIC ([10]; MG1655, A: E. coli MG1655) was > 8 µg/mL, the MIC [11] was > 8 µg/mL and the MIC [12] was > 8 µg/mL.
